The record followed here is PubChem BioAssay (NCI).

Some test systems named below: OVCAR-3 ovarian; UO-31 renal; 786-0 renal; TK-10 renal; NCI/ADR-RES ovarian; SN12C renal; HT29 colon; NCI-H23 lung; OVCAR-5 ovarian; EKVX NSCLC.
Holding throughout (experiment): inhibition of tumour cell growth, NCI panel, 48 h

Structures are written as SMILES.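 Where inhibition never reached the appropriate level, the endpoint shown equals the highest concentration tested. Otherwise, values were interpolated linearly from a five-concentration, 48-hour dose response in 96-well plates. GI50 marks 50% less growth. TGI: concentration producing complete growth inhibition.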 Some results are limits rather than exact numbers.

For the compound `CN(Cc1ccccc1)c1cc(=O)n(C)c(=O)[nH]1`, the TGI in the assay on OVCAR-3 ovarian, with UO-31 renal, in the assay with 786-0 renal, in the assay with TK-10 renal, in the assay on NCI/ADR-RES ovarian and in the assay on SN12C renal was > 100 µM throughout. Moreover, the TGI with HT29 colon, in the assay on NCI-H23 lung and in the assay with OVCAR-5 ovarian was > 100 µM in each case.

As for `Oc1[nH]c2ccc(Br)cc2c1N=NC(=S)Nc1ccc(F)cc1`, the TGI with OVCAR-3 ovarian was 29 µM; in the assay with 786-0 renal, 22.4 µM; in the assay with TK-10 renal, 23.8 µM; in the assay on NCI/ADR-RES ovarian it was 6.63 µM; in the assay on SN12C renal, > 100 µM; in the assay on HT29 colon, 28 µM. The TGI in the assay on NCI-H23 lung was 6.96 µM; in the assay on OVCAR-5 ovarian, > 100 µM.

As to `C=C1c2cc3c(cc2CC12Cc1cc4c(cc1C2=O)CCC4)CCC3` (stereo not given), the TGI in the assay on OVCAR-3 ovarian, in the assay with UO-31 renal, in the assay with 786-0 renal, in the assay on TK-10 renal, with NCI/ADR-RES ovarian and in the assay with EKVX NSCLC was > 100 µM throughout. For the same compound, the TGI with HT29 colon, with NCI-H23 lung and with OVCAR-5 ovarian was > 100 µM in each case.

As for `Nc1nc(N)c(N=O)c(Nc2ccc(Br)cc2)n1`, the TGI in the assay on OVCAR-3 ovarian was 79.3 µM; with 786-0 renal, > 100 µM; in the assay on TK-10 renal it was 70.4 µM; in the assay with EKVX NSCLC, > 100 µM; with SN12C renal, > 100 µM; in the assay with HT29 colon it was 52.3 µM. Also, the TGI with NCI-H23 lung and with OVCAR-5 ovarian was > 100 µM each time.

Take `CC(=O)OCC1OC(n2cc(I)c(=O)[nH]c2=O)C(OC(C)=O)C(OC(C)=O)C1OC(C)=O` (stereo not given): the TGI in the assay on OVCAR-3 ovarian, in the assay on UO-31 renal, in the assay on 786-0 renal, in the assay with TK-10 renal, with EKVX NSCLC and in the assay on SN12C renal was > 100 µM in each case. Also, the TGI in the assay with HT29 colon, in the assay on NCI-H23 lung and in the assay on OVCAR-5 ovarian was > 100 µM in each case.

With `O=C(Nc1ccccc1F)c1cc2ccc(O)cc2oc1=Nc1ccccc1F`, the TGI is 3.83 µM with OVCAR-3 ovarian; 3.56 µM with UO-31 renal; 3.34 µM with 786-0 renal; 5.93 µM in the assay on NCI/ADR-RES ovarian; 6.01 µM in the assay on EKVX NSCLC; 32.9 µM in the assay with HT29 colon. Besides, the TGI with NCI-H23 lung came out at 4.52 µM; with OVCAR-5 ovarian it was 15.3 µM.

As for `ClC(Cl)=C1C(=C(Cl)Cl)C(Cl)(Cl)C1(Cl)Cl`, the TGI with OVCAR-3 ovarian came out at 14.1 µM; with UO-31 renal it was 9.07 µM; in the assay with 786-0 renal, 2.81 µM; in the assay with TK-10 renal it was 11 µM; in the assay with EKVX NSCLC, 16.6 µM; in the assay with SN12C renal, 2.13 µM. Moreover, the TGI stood at 7.85 µM with HT29 colon, 3.57 µM in the assay with NCI-H23 lung and 6.25 µM in the assay on OVCAR-5 ovarian. In addition, in the assay with SN12C renal, the GI50 was 0.774 µM.

Consider `CC12CCC3C(CCC4CC(OC(=O)Cc5ccc(N(CCCl)CCCl)cc5)CCC43C)C1CCC(=O)N2` (stereo not given), for which the TGI in the assay with OVCAR-3 ovarian was determined as 32.1 µM; in the assay with UO-31 renal, 33.9 µM; in the assay on 786-0 renal, 28.8 µM; with TK-10 renal it was 35.5 µM; with EKVX NSCLC, 30.5 µM; in the assay with SN12C renal, 29.6 µM. The TGI came out at 30.2 µM in the assay on HT29 colon and 25.8 µM with NCI-H23 lung.

For `COc1c(O)c2c3c(c(C)cc(O)c3c1O)C(=O)C(O)(C(C)(C)C(C)=O)C2=O` (stereo not given), the TGI in the assay with OVCAR-3 ovarian, in the assay with UO-31 renal, in the assay with 786-0 renal, with TK-10 renal, with SN12C renal and in the assay on HT29 colon was > 100 µM throughout. For the same compound, the TGI in the assay with NCI-H23 lung and with OVCAR-5 ovarian was > 100 µM throughout.

As to `C[C@@H](Cl)[C@H]1CCCN(Cc2ccc(Br)cc2)C1`, the TGI in the assay with OVCAR-3 ovarian, in the assay on UO-31 renal, with 786-0 renal, in the assay on TK-10 renal, in the assay with NCI/ADR-RES ovarian and with EKVX NSCLC was > 12.5 µM in each case. Further, the TGI with HT29 colon, in the assay on NCI-H23 lung and in the assay with OVCAR-5 ovarian was > 12.5 µM throughout.

`c1ccc2c(c1)c1c(n2CCOCCN2CCOCC2)CCCC1`: the TGI with OVCAR-3 ovarian is > 100 µM; in the assay with UO-31 renal it was > 100 µM; in the assay with TK-10 renal, 58.6 µM; with NCI/ADR-RES ovarian, 54.9 µM; in the assay with EKVX NSCLC it was > 100 µM; in the assay on HT29 colon, 31.6 µM. Moreover, the TGI in the assay on NCI-H23 lung and with OVCAR-5 ovarian was > 100 µM each time.

In the case of `CCOC(=O)C1(C(=O)OCC)COS(=O)OC1`, the TGI with OVCAR-3 ovarian was 42.1 µM; in the assay on UO-31 renal, > 100 µM; in the assay with TK-10 renal, > 100 µM; in the assay with NCI/ADR-RES ovarian, > 100 µM; with SN12C renal it was > 100 µM; in the assay on HT29 colon it was > 100 µM. In addition, the TGI with NCI-H23 lung was > 100 µM.

As for `CCC1=CC2CN3Cn4c(c(COCc5c6n(c7ccccc57)CN5CC7C=C(CC)C5C6(C(=O)OC)C7)c5ccccc54)C(C(=O)OC)(C2)C13`, the TGI in the assay on OVCAR-3 ovarian, with UO-31 renal, with 786-0 renal, with TK-10 renal, in the assay on EKVX NSCLC and in the assay with SN12C renal was > 100 µM in each case. The TGI in the assay with HT29 colon and with NCI-H23 lung was > 100 µM each time.

Turning to `N=C(N)c1ccc(-c2ccc(-c3cccs3)s2)cc1`, the GI50 in the assay with UO-31 renal was 0.978 µM; in the assay on TK-10 renal, 1.4 µM; in the assay with NCI/ADR-RES ovarian it was 1.94 µM; in the assay on HT29 colon it was 1.24 µM; with NCI-H23 lung, 1.98 µM; in the assay with OVCAR-5 ovarian, 1.17 µM. Also, the TGI in the assay on UO-31 renal was 2.48 µM; with TK-10 renal it was 2.91 µM; with NCI/ADR-RES ovarian, 4.49 µM; in the assay on HT29 colon it was 2.6 µM; in the assay with NCI-H23 lung it was 4.86 µM; in the assay with OVCAR-5 ovarian it was 2.68 µM.

With `CC1=NN(C(=O)CC(=O)Nc2ccccc2F)C(=O)C1N=Nc1ccccc1[N+](=O)[O-]` (stereo not given), the TGI in the assay on OVCAR-3 ovarian, with UO-31 renal, with 786-0 renal, with TK-10 renal, in the assay with EKVX NSCLC and in the assay with SN12C renal was > 100 µM in each case. For the same compound, the TGI with HT29 colon, in the assay on NCI-H23 lung and in the assay with OVCAR-5 ovarian was > 100 µM throughout.
